Measured values from patent US8877748B2, “Heterocyclic fused anthraquinone derivatives, manufacturing method and pharmaceutical composition using thereof” (National Defense Medical Center, priority 2012, dated 2014).

Columns and labels:
SN12C = experiment: NCI one-dose screening, renal cancer SN12C; type: cell-based, human; details: SN12C
SK-MEL-5 = experiment: NCI one-dose screening, melanoma SK-MEL-5; type: cell-based, human; details: SK-MEL-5, 10 μM
MDA, -MB-435 = experiment: NCI one-dose screening, breast cancer MDA, -MB-435; type: cell-based, human; details: Melanoma, MDA-MB-435, 10 μM
MDA-MB-231/ATCC = experiment: NCI one-dose screening, breast cancer MDA-MB-231/ATCC; type: cell-based, human; details: MDA-MB-231/ATCC
OVCAR-4 = experiment: NCI one-dose screening, ovarian cancer OVCAR-4; type: cell-based, human; details: OVCAR-4, 10 μM
DU145 = experiment: NCI one-dose screening, prostate cancer DU145; type: cell-based, human; details: DU145, 10 μM
M14 = experiment: NCI one-dose screening, melanoma M14; type: cell-based, human; details: M14, 10 μM
COLO 205 = experiment: NCI one-dose screening, colon cancer COLO 205; type: cell-based, human; details: COLO 205, 10 μM
SF-268 = experiment: NCI one-dose screening, CNS cancer SF-268; type: cell-based, human; details: SF-268, 10 μM
EKVX = experiment: NCI one-dose screening, non-small cell lung cancer EKVX; type: cell-based, human; details: EKVX
NCI-H460 = experiment: NCI one-dose screening, non-small cell lung cancer NCI-H460; type: cell-based, human; details: NCI-H460, 10 μM
human tumor cell lines = experiment: NCI one-dose screening, mean, delta and range of growth percent over all cell lines tested; type: cell-based; details: for Growth Percent (10 μM), Delta: Delta over all cell lines tested; for Growth Percent (10 μM), Mean: Mean over all cell lines tested; for Growth Percent (10 μM), Range: Range over all cell lines tested
HS 578-T = experiment: NCI one-dose screening, breast cancer HS 578-T; type: cell-based, human; details: Breast cancer, HS 578T, 10 μM
SF-295 = experiment: NCI one-dose screening, CNS cancer SF-295; type: cell-based, human; details: SF-295, 10 μM
SR = experiment: NCI one-dose screening, leukemia SR; type: cell-based, human; details: SR
HL-60, TB = experiment: NCI one-dose screening, leukemia HL-60, TB; type: cell-based, human; details: HL-60(TB)
LOX IMVI = experiment: NCI one-dose screening, melanoma LOX IMVI; type: cell-based, human; details: LOX IMVI
CCRF-CEM = experiment: NCI screening platform one-dose single concentration screening, leukemia CCRF-CEM; type: cell-based, human; details: CCRF-CEM
MDA-MB-468 = experiment: NCI one-dose screening, breast cancer MDA-MB-468; type: cell-based, human; details: MDA-MB-468, 10 μM
SK-MEL-28 = experiment: NCI one-dose screening, melanoma SK-MEL-28; type: cell-based, human; details: SK-MEL-28, 10 μM
CAKI-1 = experiment: NCI one-dose screening, renal cancer CAKI-1; type: cell-based, human; details: CAKI-1, 10 μM
UO-31 = experiment: NCI one-dose screening, renal cancer UO-31; type: cell-based, human; details: UO-31, 10 μM
SNB-19 = experiment: NCI one-dose screening, CNS cancer SNB-19; type: cell-based, human; details: SNB-19, 10 μM
[1] = tested on: PC-3 prostate cancer cell line; experiment: SRB assay cell viability, PC-3 prostate cancer cell line; type: cell-based, human; details: Homo sapiens, PC-3 prostate cancer cell line, Table II prints no unit, μM printed, read-out: SRB assay: 50% inhibition of cancer cell proliferation of sample concentration (IC50) of PC-3 prostate cancer cell line
U251 = experiment: NCI one-dose screening, CNS cancer U251; type: cell-based, human; details: U251, 10 μM
SNB-75 = experiment: NCI one-dose screening, CNS cancer SNB-75; type: cell-based, human; details: SNB-75, 10 μM
NCI-H23 = experiment: NCI one-dose screening, non-small cell lung cancer NCI-H23; type: cell-based, human; details: NCI-H23, 10 μM
HOP-62 = experiment: NCI one-dose screening, non-small cell lung cancer HOP-62; type: cell-based, human; details: HOP-62, 10 μM
SK-MEL-2 = experiment: NCI one-dose screening, melanoma SK-MEL-2; type: cell-based, human; details: SK-MEL-2, 10 μM
NCI-H522 = experiment: NCI one-dose screening, non-small cell lung cancer NCI-H522; type: cell-based, human; details: NCI-H522, 10 μM
MALME-3M = experiment: NCI one-dose screening, melanoma MALME-3M; type: cell-based, human; details: MALME-3M
OVCAR-3 = experiment: NCI one-dose screening, ovarian cancer OVCAR-3; type: cell-based, human; details: OVCAR-3, 10 μM
TK-10 = experiment: NCI one-dose screening, renal cancer TK-10; type: cell-based, human; details: TK-10, 10 μM
MOLT-4 = experiment: NCI one-dose screening, leukemia MOLT-4; type: cell-based, human; details: MOLT-4, 10 μM
SF-539 = experiment: NCI one-dose screening, CNS cancer SF-539; type: cell-based, human; details: SF-539, 10 μM
MCF7 = experiment: NCI one-dose screening, breast cancer MCF7; type: cell-based, human; details: MCF7, 10 μM
786-O = experiment: NCI one-dose screening, renal cancer 786-O; type: cell-based, human; details: 786-0, 10 μM
NCl/ADR-RES = experiment: NCI one-dose screening, breast cancer NCl/ADR-RES; type: cell-based, human; details: Ovarian cancer, NCI/ADR-RES
NCI-H226 = experiment: NCI one-dose screening, non-small cell lung cancer NCI-H226; type: cell-based, human; details: NCI-H226, 10 μM
ACHN = experiment: NCI one-dose screening, renal cancer ACHN; type: cell-based, human; details: ACHN
UACC-62 = experiment: NCI one-dose screening, melanoma UACC-62; type: cell-based, human; details: UACC-62, 10 μM
K562cell line = experiment: NCI one-dose screening, leukemia K562; type: cell-based, human; details: K562, 10 μM
NCI-H322M = experiment: NCI one-dose screening, non-small cell lung cancer NCI-H322M; type: cell-based, human; details: Non-small cell lung cancer, NCI-H322M, 10 μM

Q: What does the source list for `CC(C)Sc1cc2c(c3nsnc13)C(=O)c1ccccc1C2=O` [C18, 4-(isopropylthio)anthra[2,1-c][1,2,5] thiadiazol-6,11-dione]?
A: Growth Percent (10 μM) (SN12C): −28.62%; Growth Percent (10 μM) (SK-MEL-5): −99.20%; Growth Percent (10 μM) (MDA, -MB-435): −79.28%; Growth Percent (10 μM) (MDA-MB-231/ATCC): −35.94%; Growth Percent (10 μM) (OVCAR-4): −100.00%; Growth Percent (10 μM) (DU145): 6.66%; Growth Percent (10 μM) (M14): −31.54%; Growth Percent (10 μM) (COLO 205): 102.47%; Growth Percent (10 μM) (SF-268): 7.06%; Growth Percent (10 μM) (EKVX): −6.58%; Growth Percent (10 μM) (NCI-H460): 4.92%; Growth Percent (10 μM), Delta (human tumor cell lines): 78.36%; Growth Percent (10 μM), Mean (human tumor cell lines): −21.64%; Growth Percent (10 μM), Range (human tumor cell lines): 202.47%; Growth Percent (10 μM) (HS 578-T): −9.16%; Growth Percent (10 μM) (SF-295): −16.57%; Growth Percent (10 μM) (SR): −47.97%; Growth Percent (10 μM) (HL-60, TB): −41.24%; Growth Percent (10 μM) (LOX IMVI): −21.59%; Growth Percent (10 μM) (CCRF-CEM): −45.05%; Growth Percent (10 μM) (MDA-MB-468): −78.76%; Growth Percent (10 μM) (SK-MEL-28): −8.32%; Growth Percent (10 μM) (CAKI-1): −5.68%; Growth Percent (10 μM) (UO-31): −28.43%; Growth Percent (10 μM) (SNB-19): 21.85%; IC50 [1]: 1.15 µM; Growth Percent (10 μM) (U251): −23.10%; Growth Percent (10 μM) (SNB-75): 9.12%; Growth Percent (10 μM) (NCI-H23): −42.19%; Growth Percent (10 μM) (HOP-62): 13.18%; Growth Percent (10 μM) (SK-MEL-2): −55.62%; Growth Percent (10 μM) (NCI-H522): −59.54%; Growth Percent (10 μM) (MALME-3M): −86.04%; Growth Percent (10 μM) (OVCAR-3): −60.32%; Growth Percent (10 μM) (TK-10): 30.33%; Growth Percent (10 μM) (MOLT-4): −54.56%; Growth Percent (10 μM) (SF-539): −47.01%; Growth Percent (10 μM) (MCF7): −68.82%; Growth Percent (10 μM) (786-O): 12.37%; Growth Percent (10 μM) (NCl/ADR-RES): −24.93%; Growth Percent (10 μM) (NCI-H226): 10.21%; Growth Percent (10 μM) (ACHN): 0.80%; Growth Percent (10 μM) (UACC-62): −57.09%; Growth Percent (10 μM) (K562cell line): −26.17%; Growth Percent (10 μM) (NCI-H322M): −0.80%

Q: For `Cc1ccc(Nc2cc3c(c4nsnc24)C(=O)c2ccccc2C3=O)cc1` [C64, 4-(p-tolylamino)anthra[2,1-c][1,2,5] thiadiazol-6,11-dione], which “Growth Percent (10 μM)” value (SN12C) is on record?
A: Its value is 74.58%.

Q: What about the “Growth Percent (10 μM)” value (SK-MEL-5) of the same molecule?
A: The value was 24.13%.

Q: What about the “Growth Percent (10 μM)” value (MDA, -MB-435) of the same molecule?
A: Its value is 65.53%.

Q: And the “Growth Percent (10 μM)” value (MDA-MB-231/ATCC)?
A: Its value is 73.83%.

Q: And the “Growth Percent (10 μM)” value (OVCAR-4)?
A: Its value is 31.44%.

Q: And the “Growth Percent (10 μM)” value (DU145)?
A: The value was 68.26%.

Q: What about the “Growth Percent (10 μM)” value (M14) of the same molecule?
A: The value was 76.72%.

Q: And the “Growth Percent (10 μM)” value (COLO 205)?
A: Its value is 100.68%.

Q: And the “Growth Percent (10 μM)” value (SF-268)?
A: The value was 52.27%.

Q: What about the “Growth Percent (10 μM)” value (EKVX) of the same molecule?
A: The value was 82.17%.

Q: And the “Growth Percent (10 μM)” value (NCI-H460)?
A: Its value is 21.80%.

Q: What about the “Growth Percent (10 μM), Delta” value (human tumor cell lines) of the same molecule?
A: The value was 48.49%.

Q: What about the “Growth Percent (10 μM), Mean” value (human tumor cell lines) of the same molecule?
A: Its value is 61.35%.

Q: What about the “Growth Percent (10 μM), Range” value (human tumor cell lines) of the same molecule?
A: Its value is 96.99%.

Q: What about the “Growth Percent (10 μM)” value (HS 578-T) of the same molecule?
A: The value was 78.75%.

Q: And the “Growth Percent (10 μM)” value (SF-295)?
A: The value was 75.76%.

Q: What about the “Growth Percent (10 μM)” value (SR) of the same molecule?
A: Its value is 26.12%.

Q: And the “Growth Percent (10 μM)” value (HL-60, TB)?
A: The value was 46.13%.

Q: What about the “Growth Percent (10 μM)” value (LOX IMVI) of the same molecule?
A: Its value is 27.05%.

Q: And the “Growth Percent (10 μM)” value (CCRF-CEM)?
A: The value was 59.59%.

Q: And the “Growth Percent (10 μM)” value (MDA-MB-468)?
A: Its value is 58.18%.

Q: What about the “Growth Percent (10 μM)” value (SK-MEL-28) of the same molecule?
A: Its value is 74.97%.

Q: What about the “Growth Percent (10 μM)” value (CAKI-1) of the same molecule?
A: The value was 50.33%.

Q: What about the “Growth Percent (10 μM)” value (UO-31) of the same molecule?
A: Its value is 56.97%.

Q: What about the “Growth Percent (10 μM)” value (SNB-19) of the same molecule?
A: Its value is 82.28%.

Q: What about the IC50 [1] of the same molecule?
A: The IC50 was 0.84 µM.

Q: And the “Growth Percent (10 μM)” value (U251)?
A: The value was 34.17%.

Q: And the “Growth Percent (10 μM)” value (SNB-75)?
A: The value was 80.91%.

Q: And the “Growth Percent (10 μM)” value (NCI-H23)?
A: The value was 45.87%.

Q: And the “Growth Percent (10 μM)” value (HOP-62)?
A: Its value is 65.10%.

Q: And the “Growth Percent (10 μM)” value (SK-MEL-2)?
A: Its value is 93.85%.

Q: What about the “Growth Percent (10 μM)” value (NCI-H522) of the same molecule?
A: The value was 53.06%.

Q: And the “Growth Percent (10 μM)” value (MALME-3M)?
A: Its value is 78.41%.

Q: And the “Growth Percent (10 μM)” value (OVCAR-3)?
A: The value was 57.92%.

Q: What about the “Growth Percent (10 μM)” value (TK-10) of the same molecule?
A: Its value is 95.15%.

Q: And the “Growth Percent (10 μM)” value (MOLT-4)?
A: Its value is 12.86%.

Q: What about the “Growth Percent (10 μM)” value (SF-539) of the same molecule?
A: Its value is 70.48%.

Q: And the “Growth Percent (10 μM)” value (MCF7)?
A: The value was 46.59%.

Q: And the “Growth Percent (10 μM)” value (786-O)?
A: Its value is 74.18%.

Q: And the “Growth Percent (10 μM)” value (NCl/ADR-RES)?
A: Its value is 61.34%.

Q: And the “Growth Percent (10 μM)” value (NCI-H226)?
A: Its value is 66.61%.

Q: What about the “Growth Percent (10 μM)” value (ACHN) of the same molecule?
A: The value was 57.60%.

Q: What about the “Growth Percent (10 μM)” value (UACC-62) of the same molecule?
A: The value was 67.41%.

Q: And the “Growth Percent (10 μM)” value (K562cell line)?
A: Its value is 33.45%.

Q: What about the “Growth Percent (10 μM)” value (NCI-H322M) of the same molecule?
A: Its value is 94.85%.
